According to patent publication US20170215470A1, “USE OF A COMPOSITION CONTAINING A LONG-CHAIN POLYOL AS A BASE FOR E-LIQUIDS” (LABORATOIRES CERES, priority 2014, published 2017):
Where two headings read alike, the source gives them in different places.

Experiment: Thermal stability by thermogravimetric (TGA) and thermal differential analysis (TDA)
Type: physicochemical
Method: The thermogravimetric analysis is a method of thermal analysis in which the changes of the physical and chemical properties of the materials are measured as a function of the temperature. The TGA can supply information about the physical phenomena such as the vaporization or the combustion. Also, it is possible to obtain information about the chemical phenomena such as the dehydration or the decomposition. In the thermal differential analysis (TDA) the study material and an inert reference undergo identical thermic cycles. During the analysis the temperature difference between the sample and the reference is recorded. These temperature differences followed as a function of the rime relative to the inert reference inform us about the thermal phenomena undergone by the sample, whether exothermic or endothermic. […] The endothermic character is associated with a change of state of the compound (ex. vaporization) whereas the exothermic character is induced by reactions of decomposition or by intra- and intermolecular chemical reactions. The thermogravimetric analyzer […] of TA INSTRUMENT was used to conjointly determine the vaporization temperatures of the products, the enthalpy values and the rate of products not vaporized at 350° C. The analysis conditions are as follows: test size: 50 mg open crucible under flow of air: 100 ml/min rate of heating: 10° C./min temperature range: 25 to 350° C. (temperature conditions representative of a normal use as well as of misuse of an electronic cigarette). The apparatus is cleaned between each analysis by being heated to 600° C. under a flow of air in order to eliminate any trace of non-vaporized residue deposited on the crucible, the balance arms or the kiln walls.

SMILES	TDA vaporization temperature (° C.) (1) (endothermic peak, 50 mg, air 100 ml/min, 10° C./min, 25 to 350° C.)	TDA transformation temperature (° C.) (2) (exothermic peak (reaction and/or decomposition), 50 mg, air 100 ml/min, 10° C./min)	TDA vaporization temperature (° C.) (1)	TGA non-evaporated residue at 250° C. (%)
CC(O)CCO (stereo not shown) [1,3-butane diol]	171 °C	without any thermal decomposition		
CN1CCCC1c1cccnc1 (stereo not shown) [Nicotine]			190 °C	1.08%
